# “Also recorded” adds a separate entry of the source.
# Tests used:
# [1] = tested on: Mouse (B16) and human (WM46) melanoma cell lines; experiment: tumor formation in mice from melanoma cells pretreated in vitro; format: in vivo; details: melanoma cells pretreated in vitro, equal numbers injected into mice
# Method: (§1) FIG. 11A: Long-term melanin assay in which normal human melanocytes were transiently treated with progesterone (P4), or estrogen (E2). Subsets of these groups (Red) were treated with an additional transient pulse of P4 at Day 27. Error bars equal the standard deviation of the samples. FIG. 11B: Western blot of melanocyte differentiation markers after a transient, 4-day treatment with either vehicle or estrogen, followed by an 8 day withdraw period. FIG. 11C: Experimental timeline of estrogen or GPER agonist (G-1) pre-treatment of mouse and human melanoma cells, n=5 per group. FIG. 11D: Relative tumor weights of mouse and human melanomas pre-treated with estrogen, * denotes significance by the Mann-Whitney test. FIG. 11E: Relative tumor weights of mouse and human melanomas pre-treated with G-1, * denotes significance by the Mann-Whitney test.
# Mouse (B16) and human (WM46) cell lines were pretreated with estrogen, G-1, or vehicle in vitro for one week then injected in equal numbers in to the left (vehicle-treated) or right (E2-treated) flank of mice, inducing tumor formation (N=5 mice per group) (FIG. 5). 14-16 days later, mice were imaged and tumors were harvested and weighed.
# To test whether transient GPER signaling induces a persistent differentiation state in melanoma cells that affects subsequent tumor growth in vivo, melanoma cells were treated with estrogen, G-1, or vehicle in vitro, and subsequently injected equal numbers of treated cells into host mice (FIG. 11C).
# [2] = tested on: mouse melanoma cell line B16F10; experiment: in vivo treatment with G-1 of B16F10 melanoma (FIG. 6); details: B16F10, FIG. 6
# normal human melanocytes = experiment: differentiation of normal human melanocytes after continuous or transient hormone exposure (melanin, RNAseq, Western blot); format: cell-based; details: normal human melanocytes, hormone or agonist exposure
# Method: as §1
# Normal human melanocytes received a pulse-treatment of estrogen—this consisted of 4 days of estrogen treatment followed by an 8 day withdraw.
# To test whether pregnancy-associated hormones induce long-lasting changes in melanocyte differentiation that may affect their future susceptibility to transformation, primary human melanocytes were transiently exposed to estrogen or progesterone (FIGS. 11A-11E).
# A subset of cells differentiated by transient exposure to estrogen was subsequently treated with progesterone.
# [3] = tested on: murine B16F10 melanoma cells; experiment: G-1-pretreated B16F10 cells injected into syngeneic C57BL/6 mice, then αPD-1 antibody or isotype control; format: in vivo, mouse; details: B16F10 cells pretreated in vitro
# Text: FIG. 13D: Experimental timeline of vehicle or G-1 pre-treatment of B16F10 cells followed by treatment with either αPD-1 antibody or isotype antibody control (2A3), n=5 per group. FIG. 13E: Tumor volumes of treatment groups at Day 14, * denotes significance One-way ANOVA with Tukey's multiple comparison test. FIG. 13F: Survival curve of mice with tumors pre-treated with vehicle or G-1, followed by isotype antibody control (2A3) or αPD-1 antibody.
# To determine whether tumor cell intrinsic GPER signaling influences melanoma vulnerability to immune checkpoint therapy, studies were performed, based on the observation that GPER-driven differentiation is long lasting. G-1 was used to activate GPER and drive differentiation in murine B16F10 melanoma cells in vitro (FIG. 13D). Then, equal numbers of vehicle or G-1-treated tumor cells were injected into syngeneic C57BL/6 mice and the animals were treated with either αPD-1 antibody or isotype antibody control.
# [4] = tested on: YUMM 1.7 cells (BRafV600E/wt Pten−/−Cdkn2−/−); experiment: YUMM 1.7 melanoma in C57BL/6 mice treated with G-1 with and without αPD-1; format: in vivo, mouse; details: YUMM 1.7, treatment initiated at day 14
# Text: FIGS. 14A-14F illustrate the finding that treatment of melanoma bearing mice with G-1 and αPD-1 immunotherapy dramatically extends survival. FIG. 14A: Experimental timeline of B16F10 bearing mice treated with vehicle or G-1, as well as αPD-1 antibody or isotype antibody control (2A3), n=10 per group. FIG. 14B: Tumor volumes of treatment groups at Day 14, * denotes significance One-way ANOVA with Tukey's multiple comparison test. FIG. 14C: Survival curve of mice treated with vehicle or G-1, as well as isotype antibody control (2A3) or αPD-1 antibody. FIG. 14D: Experimental outline of YUMM1.7 bearing mice treated with vehicle or G-1, as well as isotype antibody control (2A3) or αPD-1 antibody. Treatment was started at day 14 after tumors reached 4-5 mm in diameter. n=5 per group. FIG. 14E: Tumor volumes over time of treatment groups. FIG. 14F: Survival curve of mice treated with vehicle or G-1, as well as αPD-1 antibody or isotype antibody control (2A3).
# Although B16F10 melanoma is the most commonly used model for melanoma immunology studies, and experimental results have largely translated to humans, B16F10 lacks the BRaf or NRas oncodriver mutations present in most human melanomas. […]
# PDAC tumors = experiment: PDAC tumor bearing mice treated with G-1; format: in vivo, mouse; details: tumors grown 18 days, dosing on 3 consecutive days, follow-up 4 days; 2 independent PDAC cell lines
# [5] = tested on: pCREB and c-Myc in NSCLC line LLC1; experiment: Western blot of LLC1 cells treated with G-1; format: cell-based; details: LLC1, 500 nM
# Method: FIGS. 18A-18G illustrate the finding that GPER signaling reduces NSCLC cell proliferation in vitro and in vivo and has combinatorial effects with αPD-1 immunotherapy. FIG. 18A: Western blot for pCREB of LLC1 cells treated with 500 nM G-1 for 30 minutes. FIG. 18B: Proliferation assay of LLC1 treated with 500 nM G-1 for 6 days. FIG. 18C: Western blot for c-Myc of LLC1 cells treated with 500 nM G-1 for 6 days. FIG. 18D: Western blot for c-Myc of LLC1 cells treated with 500 nM G-1 over a time-course. […] FIG. 18F: Tumor volumes over time of LLC1 tumor bearing mice treated with vehicle or G-1, as well as αPD-1 antibody or isotype antibody control (2A3). FIG. 18G: Survival curve of mice treated with vehicle or G-1, as well as αPD-1 antibody or isotype antibody control (2A3).
# Reproductive history influences lung cancer as well. Women have a decreasing risk of lung cancer correlated with the number children they have had.
# [6] = tested on: c-Myc and pRB in syngeneic pancreatic ductal adenocarcinoma (PDAC) cell lines; experiment: Western blot of PDAC cell lines treated with G-1; details: 500 nM, 1 hour
# Method: FIG. 17A: Western blot of c-Myc in several PDAC cell lines treated with 500 nM G-1 for 1 hour.
# Using a newly available set of syngeneic pancreatic ductal adenocarcinoma (PDAC) cell lines, the effects of GPER activation on the levels of c-Myc protein were examined.
smiles,measurement,setting,value
"CC(=O)c1ccc2c(c1)[C@@H]1C=CC[C@@H]1[C@H](c1cc3c(cc1Br)OCO3)N2 (relative stereo) [Compound G-1, rel-1-[4-(6-bromo-1,3-benzodioxol-5-yl)-3aR,4S,5,9bS-tetrahydro-3H-cyclopenta[c]quinolin-8-yl]-ethanone]",tumor growth / tumor size from pretreated cells,[1],formed significantly smaller tumors; also recorded: markedly reduced subsequent tumor size
same,tumor growth in vivo,[2],inhibited tumor growth in vivo; also recorded: inhibits mouse melanoma cell line B16F10 growth in vivo
same,melanocyte differentiation state (melanin pigment production),normal human melanocytes,increase the differentiation state of human melanocytes
same,subsequent tumor growth,[3],inhibited subsequent tumor growth
same,survival,[3],extended survival compared to controls
same,survival,[4],"modest, but significant, survival increases"
same,tumor size (tumor weights),PDAC tumors,significantly smaller
same,pCREB levels,[5]; 30 minutes,elevated pCREB levels
same,c-Myc protein,[5]; long-term treatment (6 days),reduction of c-Myc protein
same,c-Myc,[6],reduced
same,pRB,[6],reduced
